Assays:
HDV genotype 1 [1] = assay: Establishment of HDV infection in dHepaRG (treatment 24 h before and during inoculation); type: cell-based, hepatitis delta virus; conditions: 1C8 10 microM, Entry Inh. 100 nM
Experimental: (§1) FIG. 1. Experimental outlines. Treatment schemes: (a) Treatments in pre-infection: dHepaRG cells were treated for 24 h (at day −1) with 100 nM of PreS1 peptide (PreS1-pep) or 10 μM of 1C8, or untreated (NT). At day 0, cells were inoculated with HBV (MOI=250) or with HDV (MOI=25) in the presence of drugs for 24 h. For the tenofovir control (TDF at 10 μM), cells were treated at day 1 and 4 post-infection. Supernatant and cells were harvested at day 7 post-infection. (b) Treatments in post-infection: dHepaRG cells were inoculated with HBV (MOI=250) or with HDV (MOI=25). At days 4, 7 and 9 post infection, cells were treated with TDF 10 μM, lamivudine (3TC) at 10 μM, 1C8 10 μM or untreated (NT). Supernatant and cells were harvested at day 11 postinfection.
FIG. 7. Effect of 1C8 on de novo establishment of ccDNA in dHepaRG (genotype D). […] B) HBs and HBe secreted antigens in supernatant were quantiUied by ELISA, whereas HBV DNA contained in virions was quantified by qPCR after viral nucleic acid extraction from supernatant. […] Statistics were done by two-tailed Mann-Whitney test, with following signiUicativity: *P<0.05, **P<0.01, ***P<0.001, ****P<0.0001. nd=not determined.

SRSF1 = SRSF1 (Homo sapiens, UniProt Q07955); conditions: cited from earlier work
Chain of SRSF1 (Q07955 whole entry, species assumed): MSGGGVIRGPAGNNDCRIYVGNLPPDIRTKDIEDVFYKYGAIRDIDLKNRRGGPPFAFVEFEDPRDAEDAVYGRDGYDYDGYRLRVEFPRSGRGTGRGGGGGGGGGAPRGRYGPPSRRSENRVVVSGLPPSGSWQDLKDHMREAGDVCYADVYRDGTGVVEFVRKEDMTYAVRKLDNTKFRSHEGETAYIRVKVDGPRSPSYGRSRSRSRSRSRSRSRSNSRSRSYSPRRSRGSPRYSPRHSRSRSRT

HBV genotype D = assay: Anti-HBV properties in persistently infected dHepaRG cells, genotype D (post-infection treatment); type: cell-based, Hepatitis B virus
Experimental: as §1
FIG. 5. Anti-HBV properties of 1C8 in persistently infected dHepaRG cells: genotype D. Differentiated HepaRG were infected with HBV genotype D at a MOI of 100 vge/cell or HDV genotype 1 at a MOI of 10 vge/cell for 7 days before being treated trice every 2-3 days with indicated molecules at a concentration of 10 microM. A) Total DNA and RNA were extracted from cells and subjected to qPCR and RTqPCR to detect HBV cccDNA, total HBV RNA or pregenomic HBV RNA. B) HBs and HBe secreted antigens in supernatant were quantified by ELISA, whereas HBV DNA contained in virions was quantified by qPCR after viral nucleic acid extraction from supernatant. C) Intracellular HDV RNA was quantified by RTqPCR after total RNA extraction from cells. D) Viability was monitored in 1C8-treated (or control treated; puromycin is a positive toxic molecule) cells by CellTiter-Glo® luminescent cell viability assay. Results are the mean+SEM of n=3 performed with 3 different differentiations of HepaRG. Statistics were done by two-tailed Mann-Whitney test, with following significativity: *P<0.05, **P<0.01, ***P<0.001, ****P<0.0001. nd=not determined
Human liver progenitor HepaRG cells were cultured in Williams medium (ThermoFisher) supplemented with 10% of FBS (Perbio), Penicillin/Streptomycin (500 U/mL), glutamine (2 mM), hydrocortisone Upjohn (2.5 mg/L; Serb laboratory), insulin (5 mg/L; Sigma Aldrich). For the differentiation process 2% of DMSO was added to the above-described supplemented Williams medium. […] The multiplicity of infection (MOI; expressed as virus genome equivalent/cell) is indicated in the figure legends, but was of 100 vge/cell if not precised.
From cell culture supernatants, secreted HBe and HBs antigens were quantified by ELISA, using a chemiluminescence immunoassay kit (Autobio, China) following manufacturer's instructions. […]
A HBV standard was used for quantification of extracellular viral DNA and RNA. […]

HDV genotype 1 [2] = assay: Hepatitis delta virus replication in infected dHepaRG cells (intracellular HDV RNA, RTqPCR); type: cell-based; conditions: HDV MOI 10 vge/cell, 10 microM three times post-infection
Experimental: as §1
FIG. 5. […] B) HBs and HBe secreted antigens in supernatant were quantified by ELISA, whereas HBV DNA contained in virions was quantified by qPCR after viral nucleic acid extraction from supernatant. C) Intracellular HDV RNA was quantified by RTqPCR after total RNA extraction from cells. D) Viability was monitored in 1C8-treated (or control treated; puromycin is a positive toxic molecule) cells by CellTiter-Glo® luminescent cell viability assay. […] Statistics were done by two-tailed Mann-Whitney test, with following significativity: *P<0.05, **P<0.01, ***P<0.001, ****P<0.0001. nd=not determined

Q: For `Cn1ccc(=O)c(C(=O)Nc2nsc3ccc([N+](=O)[O-])cc23)c1` [1C8, 4-pyridinonebenzisothiazole carboxamide], which “block of the establishment of HDV infections” value (HDV genotype 1 [1]) is on record?
A: unable to block

Q: And the “inhibition of SRSF1” value (SRSF1)?
A: does not inhibit

Q: What about the “reduction of secretion of viral antigens (HBs and HBeAg) in cell culture supernatant” value (HBV genotype D; 10 microM three times, ELISA) of the same compound?
A: 60-70%

Q: And the “reduction of HBV virions (secreted HBV DNA) in cell culture supernatant” value (HBV genotype D; 10 microM three times, qPCR)?
A: 60-70%

Q: What about the “reduction of the accumulation of intracellular HBV RNA” value (HBV genotype D; MOI 100 vge/cell, treated three times every 2-3 days with 10 microM) of the same compound?
A: 60-70%

Q: What about the “inhibition of replication of hepatitis delta virus” value (HDV genotype 1 [2]) of the same compound?
A: not capable to inhibit
